Experiments:
Format in all cases: biochemical
B-Raf = target: T1, B-Raf (Homo sapiens, UniProt P15056); test: AlphaScreen kinase assay, B-Raf; conditions: read-out: IC50, activity toward kinase B-Raf
T1 construct: purchased Upstate Biotechnology

B-Raf V600E = target: T2, B-Raf V600E (Homo sapiens, UniProt P15056, V600E); test: AlphaScreen kinase assay, B-Raf V600E; conditions: read-out: IC50, activity toward kinase B-Raf V600E
T2 construct: P4254. pFastBacBD-CDC37 BRAF D437-K722-X, V600E; His6 with pFastBac HT leader (TEV site) (N); made in house; host or cells: Sf9 (baculovirus; chaperone CDC37 co-expressed)

c-Raf-1 = target: T3, c-Raf-1 (Homo sapiens, UniProt P04049); test: AlphaScreen kinase assay, c-Raf-1; conditions: read-out: IC50, activity toward kinase c-Raf-1
T3 construct: purchased Upstate Biotechnology

Fms = target: T4, Fms (Homo sapiens, UniProt P07333); test: AlphaScreen kinase assay, Fms; conditions: read-out: IC50, activity toward kinase Fms
T4 construct: purchased Upstate Biotechnology

Kit = target: T5, Kit (Homo sapiens, UniProt P10721); test: AlphaScreen kinase assay, Kit; conditions: read-out: IC50, activity toward kinase Kit
T5 construct: P1332.N6 BI PTP KIT M552-K948-X COD; His6 (N); made in house; host or cells: E. coli (PTP1B co-expressed)

FGFR1 = target: T6, FGFR1 (Homo sapiens, UniProt P11362, C488A/C584S); test: AlphaScreen kinase assay, FGFR1; conditions: read-out: IC50, activity toward kinase FGFR
T6 construct: P1351.pET N6 BI-PTP FGFR A458-E765-X C488A, C584S; made in house; host or cells: E. coli (PTP1B co-expressed)
T6 sequence (P11362 458-765 C488A/C584S): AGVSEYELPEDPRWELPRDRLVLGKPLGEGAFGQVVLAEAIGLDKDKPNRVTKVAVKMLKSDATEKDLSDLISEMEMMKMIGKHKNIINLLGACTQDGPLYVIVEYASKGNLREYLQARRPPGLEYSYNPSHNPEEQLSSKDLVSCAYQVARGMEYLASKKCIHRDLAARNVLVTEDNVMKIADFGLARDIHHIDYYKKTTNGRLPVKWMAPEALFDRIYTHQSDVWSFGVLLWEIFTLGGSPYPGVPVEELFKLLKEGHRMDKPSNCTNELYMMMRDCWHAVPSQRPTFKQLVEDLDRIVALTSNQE

T3 sequence (P04049 whole entry): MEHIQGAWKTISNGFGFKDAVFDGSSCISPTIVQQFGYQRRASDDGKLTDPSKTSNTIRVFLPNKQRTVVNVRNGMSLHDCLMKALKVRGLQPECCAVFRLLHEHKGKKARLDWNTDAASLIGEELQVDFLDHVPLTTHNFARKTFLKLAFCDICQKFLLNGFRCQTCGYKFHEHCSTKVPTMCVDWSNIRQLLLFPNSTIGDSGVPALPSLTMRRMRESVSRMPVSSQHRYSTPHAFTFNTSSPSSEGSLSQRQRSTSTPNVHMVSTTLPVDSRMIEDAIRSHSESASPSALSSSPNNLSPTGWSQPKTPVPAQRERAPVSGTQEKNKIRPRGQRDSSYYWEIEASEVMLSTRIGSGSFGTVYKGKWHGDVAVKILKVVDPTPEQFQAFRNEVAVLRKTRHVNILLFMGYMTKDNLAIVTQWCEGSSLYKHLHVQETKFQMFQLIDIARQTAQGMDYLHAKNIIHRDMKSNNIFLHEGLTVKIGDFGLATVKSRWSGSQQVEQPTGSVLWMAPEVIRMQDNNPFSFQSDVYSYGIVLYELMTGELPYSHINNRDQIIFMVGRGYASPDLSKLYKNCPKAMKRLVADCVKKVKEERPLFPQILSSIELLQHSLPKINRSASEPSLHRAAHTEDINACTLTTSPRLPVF
T4 sequence (P07333 20-972): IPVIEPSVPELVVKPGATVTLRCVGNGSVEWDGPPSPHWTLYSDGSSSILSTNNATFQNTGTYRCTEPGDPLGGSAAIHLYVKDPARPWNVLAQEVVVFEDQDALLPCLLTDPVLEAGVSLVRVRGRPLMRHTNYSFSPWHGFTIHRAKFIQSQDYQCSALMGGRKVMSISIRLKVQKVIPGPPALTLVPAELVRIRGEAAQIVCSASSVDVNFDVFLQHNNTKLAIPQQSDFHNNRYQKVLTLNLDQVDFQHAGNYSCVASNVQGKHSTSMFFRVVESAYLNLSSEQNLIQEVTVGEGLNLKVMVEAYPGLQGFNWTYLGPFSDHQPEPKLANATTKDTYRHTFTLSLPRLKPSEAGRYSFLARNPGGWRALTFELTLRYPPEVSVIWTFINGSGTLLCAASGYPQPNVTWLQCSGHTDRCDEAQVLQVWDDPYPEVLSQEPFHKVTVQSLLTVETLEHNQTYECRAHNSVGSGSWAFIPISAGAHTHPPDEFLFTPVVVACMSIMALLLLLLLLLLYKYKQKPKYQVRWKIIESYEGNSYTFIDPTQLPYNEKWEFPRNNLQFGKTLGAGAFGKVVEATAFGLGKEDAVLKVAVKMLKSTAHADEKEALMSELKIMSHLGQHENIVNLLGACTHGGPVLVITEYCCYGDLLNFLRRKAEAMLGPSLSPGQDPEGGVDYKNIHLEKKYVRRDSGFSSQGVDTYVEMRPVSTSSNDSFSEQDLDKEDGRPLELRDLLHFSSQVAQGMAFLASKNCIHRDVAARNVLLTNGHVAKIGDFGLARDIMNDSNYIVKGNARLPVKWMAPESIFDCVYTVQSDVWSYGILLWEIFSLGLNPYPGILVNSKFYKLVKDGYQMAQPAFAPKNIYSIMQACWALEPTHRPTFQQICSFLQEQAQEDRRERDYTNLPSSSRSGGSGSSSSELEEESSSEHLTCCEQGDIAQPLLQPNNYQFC
T2 sequence (P15056 with tags, fused parts or gaps V600E): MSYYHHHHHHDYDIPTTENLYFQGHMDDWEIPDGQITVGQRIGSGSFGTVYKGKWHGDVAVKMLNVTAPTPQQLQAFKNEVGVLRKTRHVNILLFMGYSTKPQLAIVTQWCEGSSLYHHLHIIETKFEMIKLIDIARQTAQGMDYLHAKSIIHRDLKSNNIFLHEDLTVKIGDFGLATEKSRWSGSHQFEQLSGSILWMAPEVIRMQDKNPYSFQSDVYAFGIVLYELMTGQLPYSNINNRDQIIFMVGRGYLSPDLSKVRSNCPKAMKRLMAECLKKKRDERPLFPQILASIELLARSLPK
T1 sequence (P15056 whole entry): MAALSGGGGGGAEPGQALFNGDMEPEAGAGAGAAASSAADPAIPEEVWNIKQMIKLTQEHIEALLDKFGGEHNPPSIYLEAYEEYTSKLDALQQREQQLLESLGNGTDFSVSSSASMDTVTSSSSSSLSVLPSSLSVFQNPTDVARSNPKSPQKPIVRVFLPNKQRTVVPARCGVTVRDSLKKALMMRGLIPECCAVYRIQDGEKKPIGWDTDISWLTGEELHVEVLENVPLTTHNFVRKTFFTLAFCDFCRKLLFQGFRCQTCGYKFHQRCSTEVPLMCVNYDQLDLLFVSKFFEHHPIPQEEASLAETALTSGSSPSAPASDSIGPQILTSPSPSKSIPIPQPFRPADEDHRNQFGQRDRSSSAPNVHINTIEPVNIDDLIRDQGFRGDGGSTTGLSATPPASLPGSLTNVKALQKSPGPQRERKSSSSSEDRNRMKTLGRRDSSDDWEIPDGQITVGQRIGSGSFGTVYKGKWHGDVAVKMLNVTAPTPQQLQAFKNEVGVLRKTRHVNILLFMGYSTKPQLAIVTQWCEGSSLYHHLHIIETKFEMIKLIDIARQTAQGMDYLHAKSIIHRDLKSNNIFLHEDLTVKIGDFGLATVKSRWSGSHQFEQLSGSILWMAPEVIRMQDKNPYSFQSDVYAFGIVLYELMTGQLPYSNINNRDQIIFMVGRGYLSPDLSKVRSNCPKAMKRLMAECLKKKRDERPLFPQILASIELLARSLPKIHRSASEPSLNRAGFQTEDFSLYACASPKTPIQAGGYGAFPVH
T5 sequence (P10721 with tags, fused parts or gaps): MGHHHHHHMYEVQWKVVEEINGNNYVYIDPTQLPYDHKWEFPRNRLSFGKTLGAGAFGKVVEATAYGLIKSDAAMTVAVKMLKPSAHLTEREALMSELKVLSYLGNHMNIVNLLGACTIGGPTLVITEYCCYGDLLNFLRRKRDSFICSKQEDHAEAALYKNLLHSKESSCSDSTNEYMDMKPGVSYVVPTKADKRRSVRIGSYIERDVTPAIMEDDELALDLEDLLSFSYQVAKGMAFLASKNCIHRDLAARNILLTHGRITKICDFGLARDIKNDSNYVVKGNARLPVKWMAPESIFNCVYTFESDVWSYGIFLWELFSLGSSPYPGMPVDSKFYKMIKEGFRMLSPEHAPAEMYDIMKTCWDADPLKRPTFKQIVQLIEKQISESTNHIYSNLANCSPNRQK

Row | Structure (SMILES) | IC50 (B-Raf) [µM] | IC50 (B-Raf V600E) [µM] | IC50 (c-Raf-1) [µM] | IC50 (Fms) [µM] | IC50 (Kit) [µM] | IC50 (FGFR1) [µM]
1 | O=C(c1c(F)ccc(NS(=O)(=O)c2ccccc2)c1F)c1c[nH]c2ncc(Br)cc12 [Compound P-0798, N-[3-(5-Bromo-1H-pyrrolo[2,3-b]pyridine-3-carbonyl)-2,4-difluoro-phenyl]-benzenesulfonamide] | ≤ 10 | ≤ 10 | ≤ 10 | ≤ 10 | ≤ 10 | ≤ 10
2 | COCCOc1cnc2[nH]cc(C(=O)c3c(F)ccc(NS(=O)(=O)c4cccc(F)c4)c3F)c2c1 [Compound P-1871, N-{2,4-Difluoro-3-[5-(2-methoxy-ethoxy)-1H-pyrrolo[2,3-b]pyridine-3-carbonyl]-phenyl}-3-fluoro-benzenesulfonamide] | ≤ 10 | ≤ 10 | ≤ 10 | ≤ 10 | ≤ 10 | –
3 | CCCS(=O)(=O)Nc1ccc(F)c(C(=O)c2c[nH]c3ncc(-c4ccc(N5CCOCC5)nc4)cc23)c1F [Compound P-1881, Propane-1-sulfonic acid {2,4-difluoro-3-[5-(6-morpholin-4-yl-pyridin-3-yl)-1H-pyrrolo[2,3-b]pyridine-3-carbonyl]-phenyl}-amide] | ≤ 10 | ≤ 10 | ≤ 10 | ≤ 10 | ≤ 10 | –
4 | CCc1cnc2[nH]cc(C(=O)c3c(F)ccc(NS(=O)(=O)c4ccc(C(F)(F)F)cc4)c3F)c2c1 [Compound P-1783, N-[3-(5-Ethyl-1H-pyrrolo[2,3-b]pyridine-3-carbonyl)-2,4-difluoro-phenyl]-4-trifluoromethyl-benzenesulfonamide] | ≤ 10 | ≤ 10 | ≤ 10 | ≤ 10 | ≤ 10 | –
5 | COc1ccc(F)c(C(=O)c2c[nH]c3ncc(Br)cc23)c1F [Compound P-1386, (5-Bromo-1H-pyrrolo[2,3-b]pyridin-3-yl)-(2,6-difluoro-3-methoxy-phenyl)-methanone] | ≤ 10 | ≤ 10 | ≤ 10 | ≤ 10 | ≤ 10 | ≤ 10
6 | O=C(Nc1cccc(C(=O)c2c[nH]c3ncccc23)c1)Nc1cccc(C(F)(F)F)c1F [Compound P-1714, 1-(2-Fluoro-3-trifluoromethyl-phenyl)-3-[3-(1H-pyrrolo[2,3-b]pyridine-3-carbonyl)-phenyl]-urea] | ≤ 10 | ≤ 10 | ≤ 10 | ≤ 10 | ≤ 10 | –
7 | CC(=O)Nc1cccc(-c2cnc3[nH]cc(C(=O)c4cccc(C(F)(F)F)c4)c3c2)c1 [Compound P-1419, N-{3-[3-(3-Trifluoromethyl-benzoyl)-1H-pyrrolo[2,3-b]pyridin-5-yl]-phenyl}-acetamide] | ≤ 10 | ≤ 10 | ≤ 10 | ≤ 10 | ≤ 10 | ≤ 10
8 | O=C(Nc1cccc(C(=O)c2c[nH]c3ncc(Cl)cc23)c1)Nc1ccc(C(F)(F)F)cc1Cl [Compound P-1739, 1-[3-(5-Chloro-1H-pyrrolo[2,3-b]pyridine-3-carbonyl)-phenyl]-3-(2-chloro-4-trifluoromethyl-phenyl)-urea] | ≤ 10 | ≤ 10 | ≤ 10 | ≤ 10 | ≤ 10 | –
9 | O=C(Nc1ccc(F)c(C(=O)c2c[nH]c3ncccc23)c1F)OCc1ccccc1 [Compound P-0894, [2,4-Difluoro-3-(1H-pyrrolo[2,3-b]pyridine-3-carbonyl)-phenyl]-carbamic acid benzyl ester] | ≤ 10 | ≤ 10 | ≤ 10 | – | – | ≤ 10
10 | O=C(Nc1cccc(C(=O)c2c[nH]c3ncccc23)c1)Nc1cc(C(F)(F)F)ccc1Cl [Compound P-1712, 1-(2-Chloro-5-trifluoromethyl-phenyl)-3-[3-(1H-pyrrolo[2,3-b]pyridine-3-carbonyl)-phenyl]-urea] | ≤ 10 | ≤ 10 | ≤ 10 | ≤ 10 | ≤ 10 | –
11 | O=C(Nc1cccc(C(=O)c2c[nH]c3ncc(Cl)cc23)c1)Nc1cccc(C(F)(F)F)c1F [Compound P-1740, 1-[3-(5-Chloro-1H-pyrrolo[2 3-b]pyridine-3-carbonyl)-phenyl]-3-(2-fluoro-3-trifluoromethyl-phenyl)-urea] | ≤ 10 | ≤ 10 | ≤ 10 | ≤ 10 | ≤ 10 | –
12 | O=C(Nc1ccccc1)Nc1cccc(C(=O)c2c[nH]c3ncc(Cl)cc23)c1 [Compound P-1733, 1-[3-(5-Chloro-1H-pyrrolo[2,3-b]pyridine-3-carbonyl)-phenyl]-3-phenyl-urea] | ≤ 10 | ≤ 10 | ≤ 10 | ≤ 10 | ≤ 10 | –
13 | CCCS(=O)(=O)Nc1ccc(F)c(C(O)c2c[nH]c3ncc(OC)cc23)c1F (stereo not shown) [Compound P-1243, Propane-1-sulfonic acid {2,4-difluoro-3-[hydroxy-(5-methoxy-1H-pyrrolo[2,3-b]pyridin-3-yl)-methyl]-phenyl}-amide] | ≤ 10 | ≤ 10 | ≤ 10 | – | – | –

More lines, now with the values ahead:

Row | IC50 (B-Raf) [µM] | IC50 (B-Raf V600E) [µM] | IC50 (c-Raf-1) [µM] | IC50 (Fms) [µM] | IC50 (Kit) [µM] | IC50 (FGFR1) [µM] | Structure (SMILES)
14 | ≤ 10 | ≤ 10 | ≤ 10 | – | – | ≤ 10 | CCCS(=O)(=O)Nc1ccc(Cl)c(C(=O)c2c[nH]c3ncc(Cl)cc23)c1F [Compound P-1004, Propane-1-sulfonic acid [4-chloro-3-(5-chloro-1H-pyrrolo[2,3-b]pyridine-3-carbonyl)-2-fluoro-phenyl]-amide]
15 | ≤ 10 | ≤ 10 | ≤ 10 | ≤ 10 | – | – | O=C(Nc1cccc(C(=O)c2c[nH]c3ncc(Cl)cc23)c1)Nc1cc(C(F)(F)F)ccc1Cl [Compound P-1738, 1-[3-(5-Chloro-1H-pyrrolo[2,3-b]pyridine-3-carbonyl)-phenyl]-3-(2-chloro-5-trifluoromethyl-phenyl)-urea]
16 | ≤ 10 | ≤ 10 | ≤ 10 | – | ≤ 10 | ≤ 10 | CCCS(=O)(=O)Nc1ccc(Cl)c(C(=O)c2c[nH]c3ncc(-c4ccccc4)cc23)c1F [Compound P-0776, Propane-1-sulfonic acid [4-chloro-2-fluoro-3-(5-phenyl-1H-pyrrolo[2,3-b]pyridine-3-carbonyl)-phenyl]-amide]
17 | ≤ 10 | ≤ 10 | ≤ 10 | ≤ 10 | ≤ 10 | ≤ 10 | COc1cc(Cc2c[nH]c3ncc(-c4ccsc4)cc23)cc(OC)c1 [Compound P-0613]
18 | ≤ 10 | ≤ 10 | ≤ 10 | ≤ 10 | ≤ 10 | – | CCCS(=O)(=O)Nc1ccc(F)c(C(=O)c2c[nH]c3ncc(C(=O)NCC)cc23)c1F [Compound P-1630, 3-[2,6-difluoro-3-(propane-1-sulfonylamino)-benzoyl]-1H-pyrrolo[2,3-b]pyridine-5-carboxylic acid ethylamide]
19 | ≤ 10 | ≤ 10 | ≤ 10 | ≤ 10 | ≤ 10 | – | CCCS(=O)(=O)Nc1ccc(F)c(C(=O)c2c[nH]c3ncc(-c4ccc(N5CCN(C)CC5)nc4)cc23)c1F [Compound P-1882, Propane-1-sulfonic acid (2,4-difluoro-3-{5-[6-(4-methyl-piperazine-1-yl)-pyridin-3-yl]-1H-pyrrolo[2,3-b]pyridine-3-carbonyl}-phenyl)-amide]

From US8415469B2, “Compounds and methods for kinase modulation, and indications therefor” (Plexxikon Inc., priority 2005, dated 2013)
